This passage reports mortality results from patent publication US9883675B2, “Method for controlling pests” (SUMITOMO CHEMICAL COMPANY, LIMITED, priority 2013, dated 2018).

The experiment has as its system Diamondback moth (Plutella xylostella). The experiment can be described thus: Test Example 1: Japanese radish seed treatment, mortality of Diamondback moth larvae. It is filed as in vivo. The note with it: 48 h, average of two replications; for mortality at 0.01 mg: dose 0.01 mg/1 grain of seed; for mortality at 0.2 mg: dose 0.2 mg/1 grain of seed. The method, then:
Each of the present fused heterocyclic compounds 3, 4, 5, 9, 15, 16, 17, 18, 19, 20, 22, 25, 72, 74, 85, 130, 399, 409, 414, 419, 443, 444, 445, 464 and 467 was dissolved in acetone (available from Wako Pure Chemical Industries, Ltd.) containing 5% (W/V) SOLGEN TW-20 (available from Daiichi-Kogyo Seiyaku Co. Ltd.) so as to give a prescribed concentration, and to prepare the testing solution.
Nine (9) grains of the Japanese raddish (Raphanus sativas var. longipinnatus) were placed in a 2 ml volume polypropylene microtube (manufactured by As One Co.) and thereto was added 18 μl of the above testing solution and the seeds in the microtube were shaken and stirred on Stirrer (Trade name: VORTEX-GENIE2, manufactured by Scientific Industries, Inc.). After the testing solution was spread uniformly to the whole seed, the seeds were allowed to air dry.
To a 90 ml volume of plastic cup filled with ten (10) g of culture soil (Trade name: Aisai No. 1; available from Katakura Chikkarin Co., Ltd.) was added water (5 ml) and thereto was seeded three (3) grains of the above seeds.
At four days after the seeding, Diamondback moth (Plutella xylostella) at the third instar larval stages were released in a ratio of 10 (ten) heads of insects per the cup, and then the cups were covered with nylon gauze and covered with a lid (hereinafter, referred to as “treated group”).
On the other hand, Japanese raddish was seeded by the similar procedures to the treated group except that the present fused heterocyclic compound was not dissolved in acetone (available from Wako Pure Chemical Industries, Ltd.) containing 5% (W/V) SOLGEN TW-20 (available from Daiichi-Kogyo Seiyaku Co. Ltd.), and the larvae were released, and the cups were covered with a lid (hereinafter, referred to as “Untreated group”).
At two days after the release, the surviving and death of the larvae were observed and on basis of the results of the observation, the mortalities of both groups were calculated by the following equation 1), respectively. Two replication tests were performed on each group. The average value is shown below. Mortality (%)=(Total number of […])/Total number of Tested insects×100 Equation 1)

Where [1] appears, read: Diamondback moth third instar larvae released 4 days after seeding, observed 2 days after release.
Where [2] appears, read: third instar larvae released four days after seeding, observed two days after release.

Take `Cn1c(-c2ncc(C(F)(F)F)cc2S(C)(=O)=O)nc2cc(C(F)(F)C(F)(F)F)cnc21` [Present fused heterocyclic compound 419, 2-(3-Methylsulfonyl-5-trifluoromethylpyridin-2-yl)-3-methyl-6-pentafluoroethyl-3H-imidazo[4,5-b]pyridine]: under setting [1], the mortality – broadly, the share of the test organisms that died – at 0.01 mg stood at 100% and the mortality at 0.2 mg is 100%.

As for `CCS(=O)(=O)c1cccnc1-c1nc2cc(SC(F)(F)F)ccc2o1` [Present fused heterocyclic compound 443, 2-(3-ethylsulfonylpyridin-2-yl)-5-(trifluoromethylsulfanyl)benzoxazole], under setting [1], the mortality at 0.01 mg worked out at 100% and the mortality at 0.2 mg is 100%.

As for `CCS(=O)(=O)c1cccnc1-c1nc2cc([S+]([O-])C(F)(F)F)ccc2o1` (stereo not drawn) [Present fused heterocyclic compound 444, 2-(3-ethylsulfonylpyridin-2-yl)-5-(trifluoromethylsulfinyl)benzoxazole], under setting [1], the mortality at 0.01 mg was 100% and the mortality at 0.2 mg was 100%.

In the case of `CCS(=O)(=O)c1cccnc1-c1nc2cc(S(=O)(=O)C(F)(F)F)ccc2o1` [Present fused heterocyclic compound 445, 2-(3-ethylsulfonylpyridin-2-yl)-5-(trifluoromethylsulfonyl)benzoxazole], under setting [1], the mortality at 0.01 mg was 100% and the mortality at 0.2 mg was 100%.

Turning to `CCS(=O)(=O)c1cccnc1-c1nc2cc(C(F)(F)C(F)(F)F)cnc2o1` [Present fused heterocyclic compound 464, 2-(3-Ethylsulfonylpyridin-2-yl)-6-pentafluoroethyl-oxazolo[5,4-b]pyridine], under setting [1], the mortality at 0.01 mg amounted to 100% and the mortality at 0.2 mg came out at 100%.

As for `CCS(=O)(=O)c1cccnc1-c1nc2cc(C(F)(F)C(F)(F)F)ccc2o1` [Present fused heterocyclic compound 467, 2-(3-Ethylsulfonylpyridin-2-yl)-5-pentafluoroethyl-benzoxazole], under setting [2], the mortality at 0.01 mg was determined as 100% and the mortality at 0.2 mg was 100%.
